Assay results: patent publication US4618618A, “Compounds and compositions” (priority 1981, dated 1986)
Counter-ions that a name gives are not always drawn. Like-named read-outs stand apart in the source and are kept apart here. One block for each compound: values may come before it.

Columns and labels:
helminth = settings: ruminants sheep and cattle; cited from earlier work
[1] = cited from earlier work
[2] = system: Ostertagia, Trichostrongylus and Haemonchus; assay: Anthelmintic efficacy in infected sheep (parasite counts at slaughter); type: in vivo
Description: To ensure that the compounds were tested in heavily infected animals sheep harbouring a heavy naturally acquired parasitic infection were chosen and further infected with larvae of the species Ostertagia, Trichostrongylus and Haemonchus. The infections were allowed to reach maturity. […] A second group of sheep, the controls, were injected with an aqueous solution of levamisole dihydrogen phosphate at a dose rate equivalent to 6 mg of levamisole base per kilogram of animal body weight.
Half of the sheep in each group were slaughtered 7 days after treatment and the parasites in the abomasum, small intestine, large intestine and lungs were counted.

[3] = Level of nitroxynil in the blood of cattle after injection (high pressure liquid chromatography)
[4] = Level of levamisole in the blood of cattle after injection (high pressure liquid chromatography)
liver fluke = settings: mature and immature liver fluke; cited from earlier work
in vivo = settings: bovine, 10 mg/kg
[5] = bovine, in vivo
[6] = cattle, injected solution in polyethylene glycol 200 (Example 2 (a)), 17 mg of the salt/kg, each of four animals
[7] = compared with levamisole dihydrogen phosphate

SMILES: c1ccc([C@H]2CN3CCSC3=N2)cc1 [levamisole, L-2,3,5,6-tetrahydro-6-phenylimidazo[2,1-b]thiazole]
- activity as an anthelmintic agent relative to tetramisole (helminth): approximately twice as active as tetramisole
- base catalysed hydrolysis [1]: subject to base catalysed hydrolysis

SMILES: c1ccc(C2CN3CCSC3=N2)cc1 (racemic) [tetramisole, D,L-2,3,5,6-Tetrahydro-6-phenylimidazo[2,1-b]thiazole]
- base catalysed hydrolysis [1]: subject to base catalysed hydrolysis

SMILES: N#Cc1cc(I)c(O)c([N+](=O)[O-])c1 [nitroxynil, 4-cyano-2-iodo-6-nitrophenol]
- activity against liver fluke (liver fluke): effective against both mature and immature liver fluke

Continued, in another order:

- time to maximum level of nitroxynil in the blood [3, 6]: approximately 24 hours
- rise of blood level of nitroxynil to a maximum (in words) ([3]; compared with nitroxynil N-ethyl-D-glucamine salt): much more slowly
- nitroxynil levels obtained in the blood (in words) ([3]; parenteral administration): therapeutic levels
- level of levamisole in the blood 4 hours after the injection, % of the maximum level ([4]; cattle, injected solution in polyethylene glycol 200 (Example 2 (a)), 17 mg of the salt/kg, 4 hours): at least 50%
- time to maximum level of levamisole in the blood [4, 6]: approximately 2 hours
- duration of the level of levamisole in the blood (in words) [4, 7]: maintained for a longer period of time
- rise of blood level of levamisole to a maximum (in words) [4, 7]: much more slowly
- rise of blood level of levamisole to a maximum (in words) ([4]; compared with levamisole dihydrogen phosphate, listed as nitroxynil salt of levamisole): more slowly
- levamisole levels obtained in the blood (in words) ([4]; parenteral administration): therapeutic levels
SMILES: N#Cc1cc(I)c(O)c([N+](=O)[O-])c1.c1ccc([C@H]2CN3CCSC3=N2)cc1 [Example 1, L-2,3,5,6-tetrahydro-6-phenylimidazo[2,1-b]thiazolium 4-cyano-2-iodo-6-nitrophenoxide]
- eradication of the helminth infection ([2]; sheep slaughtered 7 days after treatment, injected 14.5 mg of the salt/kg in polyethylene glycol 200): either completely or essentially completely eradicated
- eradication of the helminth infection ([2]; sheep slaughtered 28 days after treatment, injected 14.5 mg of the salt/kg in polyethylene glycol 200): either completely or essentially completely eradicated

- Tmax (in vivo): 4 h
SMILES: N#Cc1cc(I)c(O)c([N+](=O)[O-])c1 [nitroxynil N-ethyl-D-glucamine salt]

- time to maximum level of levamisole in the blood ([5]; 6 mg/kg): ≤ 1 h
SMILES: O=P(O)(O)O.c1ccc([C@H]2CN3CCSC3=N2)cc1 [levamisole dihydrogen phosphate, reference compound]
- eradication of the helminth infection ([2]; sheep slaughtered 7 days after treatment, injected aqueous solution, 6 mg levamisole base/kg): either completely or essentially completely eradicated
- eradication of the helminth infection ([2]; sheep slaughtered 28 days after treatment, injected aqueous solution, 6 mg levamisole base/kg): either completely or essentially completely eradicated
- course of the level of levamisole in the blood (in words) ([5]; sc): quickly rises to a maximum and quickly declines
